Reference: paper PMC6576746, “Rational discovery of dual-indication multi-target PDE/Kinase inhibitor for precision anti-cancer therapy using structural systems pharmacology” (PLoS Computational Biology, 2019)

Key:
Experiment in all cases: cells
Design in all cases: species or system panel of human cancer cell lines; Eurofins OncoPanel proliferation; nuclei count by high-content fluorescence imaging, 10-point dose response
[1] = system: HOS; conditions: Homo sapiens, HOS, 72 h, cell count, 3 days
Protocol: (§1) OncoPanel cancer cell proliferation assay was performed by Eurofins Panlabs, Inc. (Missouri, USA). Cancer cells were grown in RPMI 1640, 10% FBS, 2 mM L-alanyl-L-glutamine, 1 mM Na pyruvate, or a special medium. Cells were seeded into 384-well plates and incubated in a humidified atmosphere of 5% CO2 at 37°C. Compounds were added the day following cell seeding. At the same time, a time zero untreated cell plate was generated. After a 3-day incubation period, cells were fixed and stained to allow fluorescence imaging of nuclei. Levosimendan was serially diluted in half-log steps from 100 μM and assayed over 10 concentrations with a maximum assay concentration of 0.1% DMSO. Automated fluorescence microscopy was carried out using a Molecular Devices ImageXpress Micro XL high-content imager, and images were collected with a 4X objective. 16-bit TIFF images were acquired and analyzed with MetaXpress 5.1.0.41 software. Cell count EC50 is the test concentration at the curve inflection point (parameter C), or half the effective response. IC50 is the test compound concentration at 50% of the maximum possible response. GI50 is the concentration needed to reduce the observed growth by half (midway between the relative cell count at the curve maximum and at the time of compound addition). Activity area is an estimate of the integrated area above the response curve. Activity area values range from 0–10, where a value of zero indicates no inhibition of proliferation at all concentrations, and a value of 10 indicates complete inhibition of proliferation at all concentrations.

[2] = system: Cal 27; conditions: Homo sapiens, CAL-27, 72 h, cell count, 3 days
Protocol: as §1

[3] = system: H4; conditions: 72 h, cell count, 3 days
Protocol: as §1

[4] = system: SNU-1; conditions: Homo sapiens, SNU1, 72 h, cell count, 3 days
Protocol: as §1

[5] = system: SW579; conditions: SW579, 72 h, cell count, 3 days
Protocol: as §1

[6] = system: HuCCT1; conditions: Homo sapiens, HuCCT-1, 72 h, cell count, 3 days
Protocol: as §1

[7] = system: BxPC-3; conditions: Homo sapiens, BXPC-3, 72 h, cell count, 3 days
Protocol: as §1

[8] = system: A431; conditions: Homo sapiens, A-431, 72 h, cell count, 3 days
Protocol: as §1

[9] = system: T98G; conditions: Homo sapiens, T98G, 72 h, cell count, 3 days
Protocol: as §1

[10] = system: OE21; conditions: OE21, 72 h, cell count, 3 days
Protocol: as §1

[11] = system: HT-1197; conditions: Homo sapiens, HT1197, 72 h, cell count, 3 days
Protocol: as §1

[12] = system: NTERA-2 cl.D1; conditions: Homo sapiens, NTERA-2-cl-D1, 72 h, cell count, 3 days
Protocol: as §1

[13] = system: MHH-PREB-1; conditions: Homo sapiens, MHH-PREB-1, 72 h, cell count, 3 days
Protocol: as §1

[14] = system: M059J; conditions: Homo sapiens, M059J, 72 h, cell count, 3 days
Protocol: as §1

[15] = 50% of maximum possible response

IC50 [4, 15]: 6.31 µM
GI50 ([4]; corrected for time zero): 5.53 µM
EC50 ([4]; curve inflection point): 5.52 µM
IC50 [5, 15]: 90.1 µM
GI50 ([5]; corrected for time zero): 67.9 µM
EC50 ([5]; curve inflection point): 90.1 µM
IC50 [7, 15]: 89.2 µM
GI50 ([7]; corrected for time zero): 78 µM
EC50 ([7]; curve inflection point): 89.2 µM
IC50 [8, 15]: 44.9 µM
GI50 ([8]; corrected for time zero): 42.8 µM
EC50 ([8]; curve inflection point): 44.9 µM
SMILES: C[C@@H]1CC(=O)NN=C1c1ccc(NN=C(C#N)C#N)cc1 [levosimendan]
IC50 [1, 15]: 11.4 µM
GI50 ([1]; corrected for time zero): 9.54 µM
EC50 ([1]; curve inflection point): 11.4 µM
IC50 [2, 15]: 14.9 µM
GI50 ([2]; corrected for time zero): 13.2 µM
EC50 ([2]; curve inflection point): 14.5 µM
IC50 [3, 15]: > 100 µM
GI50 ([3]; corrected for time zero): > 100 µM
EC50 ([3]; curve inflection point): > 100 µM
IC50 [6, 15]: 27.5 µM
GI50 ([6]; corrected for time zero): 24.8 µM
EC50 ([6]; curve inflection point): 25.4 µM
IC50 [9, 15]: > 100 µM
GI50 ([9]; corrected for time zero): > 100 µM
EC50 ([9]; curve inflection point): > 100 µM
IC50 [10, 15]: 85.5 µM
GI50 ([10]; corrected for time zero): 76 µM
EC50 ([10]; curve inflection point): 85.5 µM
IC50 [11, 15]: > 100 µM
GI50 ([11]; corrected for time zero): 96 µM
EC50 ([11]; curve inflection point): > 100 µM
IC50 [12, 15]: 11.8 µM
GI50 ([12]; corrected for time zero): 9.76 µM
EC50 ([12]; curve inflection point): 11.6 µM
IC50 [13, 15]: 7.64 µM
GI50 ([13]; corrected for time zero): 7.08 µM
EC50 ([13]; curve inflection point): 7.4 µM
IC50 [14, 15]: 51.5 µM
GI50 ([14]; corrected for time zero): 38.5 µM
EC50 ([14]; curve inflection point): 48.8 µM
